Experimental findings from ChEMBL document CHEMBL1134658 (J Med Chem, 2001) are described below.

One assay has as its target Cytochrome P450 2C19 (Homo sapiens, UniProt P33261). In words: Inhibitory effect on human recombinant liver cytochrome P450 2C19 expressed in yeast strain.
The target in a further assay is Cytochrome P450 2C9 (Homo sapiens, UniProt P11712). Briefly: Inhibitory effect on human recombinant liver cytochrome P450 2C9 expressed in yeast strain.
The next assay deals with T1, Cytochrome P450 2C8 (Homo sapiens, UniProt P10632).
T1 sequence (P10632 whole entry): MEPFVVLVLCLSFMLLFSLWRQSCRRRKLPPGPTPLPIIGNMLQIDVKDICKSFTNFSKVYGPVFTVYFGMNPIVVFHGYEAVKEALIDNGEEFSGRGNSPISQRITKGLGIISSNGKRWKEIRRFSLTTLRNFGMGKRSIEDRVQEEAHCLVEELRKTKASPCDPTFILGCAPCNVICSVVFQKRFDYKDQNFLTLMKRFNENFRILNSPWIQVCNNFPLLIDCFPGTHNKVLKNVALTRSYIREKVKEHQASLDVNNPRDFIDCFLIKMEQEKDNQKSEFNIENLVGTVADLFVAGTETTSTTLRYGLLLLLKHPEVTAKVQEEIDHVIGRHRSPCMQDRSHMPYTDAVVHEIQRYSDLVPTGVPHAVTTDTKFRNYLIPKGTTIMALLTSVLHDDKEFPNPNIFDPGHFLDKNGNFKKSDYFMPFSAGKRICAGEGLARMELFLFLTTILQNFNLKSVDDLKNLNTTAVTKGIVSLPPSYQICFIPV
Briefly: Inhibitory effect on human recombinant liver Cytochrome P450 2C8 expressed in yeast strain.

The target of another assay is T2, Cytochrome P450 2C18 (Homo sapiens, UniProt P33260).
T2 sequence (P33260 whole entry): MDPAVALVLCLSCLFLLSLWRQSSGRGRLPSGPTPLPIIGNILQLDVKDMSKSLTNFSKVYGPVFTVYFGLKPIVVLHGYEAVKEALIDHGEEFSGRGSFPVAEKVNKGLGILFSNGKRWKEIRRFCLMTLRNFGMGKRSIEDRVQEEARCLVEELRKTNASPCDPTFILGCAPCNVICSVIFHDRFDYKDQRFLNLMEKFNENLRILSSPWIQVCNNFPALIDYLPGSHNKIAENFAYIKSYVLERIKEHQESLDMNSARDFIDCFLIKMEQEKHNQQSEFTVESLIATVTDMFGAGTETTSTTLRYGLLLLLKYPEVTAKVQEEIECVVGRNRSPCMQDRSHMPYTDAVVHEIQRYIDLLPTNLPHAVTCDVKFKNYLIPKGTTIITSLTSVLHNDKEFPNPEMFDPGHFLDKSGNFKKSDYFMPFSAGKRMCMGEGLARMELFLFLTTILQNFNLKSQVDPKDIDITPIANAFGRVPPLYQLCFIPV
In words: Inhibitory effect on human recombinant liver cytochrome P450 2C18 expressed in yeast strain.

Chain of Cytochrome P450 2C19 (P33261 whole entry): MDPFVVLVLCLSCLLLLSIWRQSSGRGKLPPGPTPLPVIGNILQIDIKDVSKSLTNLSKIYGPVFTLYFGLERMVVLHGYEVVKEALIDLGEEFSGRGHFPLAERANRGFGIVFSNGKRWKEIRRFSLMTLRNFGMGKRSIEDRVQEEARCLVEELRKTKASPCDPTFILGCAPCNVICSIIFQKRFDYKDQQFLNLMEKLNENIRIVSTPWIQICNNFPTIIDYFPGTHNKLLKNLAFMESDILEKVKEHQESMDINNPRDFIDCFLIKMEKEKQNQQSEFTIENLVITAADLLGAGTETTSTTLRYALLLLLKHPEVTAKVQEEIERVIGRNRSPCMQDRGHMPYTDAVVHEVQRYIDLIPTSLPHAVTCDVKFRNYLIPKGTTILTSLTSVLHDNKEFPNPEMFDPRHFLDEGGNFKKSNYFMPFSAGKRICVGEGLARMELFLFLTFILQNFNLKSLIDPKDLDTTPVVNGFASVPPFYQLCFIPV
Chain of Cytochrome P450 2C9 (P11712 whole entry): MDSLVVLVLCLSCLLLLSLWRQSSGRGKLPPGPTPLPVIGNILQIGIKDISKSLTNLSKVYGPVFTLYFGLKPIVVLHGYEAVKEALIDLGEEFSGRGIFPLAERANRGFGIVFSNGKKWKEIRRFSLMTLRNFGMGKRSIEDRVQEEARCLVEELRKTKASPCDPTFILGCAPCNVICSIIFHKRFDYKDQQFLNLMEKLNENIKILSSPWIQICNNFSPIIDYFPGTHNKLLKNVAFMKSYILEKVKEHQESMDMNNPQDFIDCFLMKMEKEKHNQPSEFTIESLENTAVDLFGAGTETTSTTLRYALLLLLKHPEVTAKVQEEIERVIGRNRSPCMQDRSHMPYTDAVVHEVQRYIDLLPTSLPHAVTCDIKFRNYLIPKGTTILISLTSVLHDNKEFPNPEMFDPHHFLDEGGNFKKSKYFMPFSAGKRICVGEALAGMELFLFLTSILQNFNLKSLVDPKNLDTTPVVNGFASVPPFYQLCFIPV

Take `Nc1ccc(S(=O)(=O)N(Cc2ccccc2)c2ccnn2-c2ccccc2)cc1`: the concentration for half-maximal inhibition (IC50) on Cytochrome P450 2C19 turned out to be 45 µM; on Cytochrome P450 2C9, 55 µM; at Cytochrome P450 2C8 it was 15 µM; at Cytochrome P450 2C18, 7 µM.
For `CN(c1ccnn1-c1ccccc1)S(=O)(=O)c1ccc(N)cc1`, in that order: 200 µM, 100 µM, 50 µM and 15 µM.
Consider `CCCN(c1ccnn1-c1ccccc1)S(=O)(=O)c1ccc(C)cc1`, for which the half-maximal inhibitory concentration (IC50) was 10 µM at Cytochrome P450 2C19, 20 µM on Cytochrome P450 2C9, 15 µM at Cytochrome P450 2C8 and 20 µM at Cytochrome P450 2C18.
For the molecule `NCCc1ccc(S(=O)(=O)N(CCCO)c2ccnn2-c2ccccc2)cc1`, the 50% inhibitory concentration (IC50) was above 250 µM at Cytochrome P450 2C8 and 65 µM at Cytochrome P450 2C18.
For `O=[N+]([O-])c1cccc(-c2ccc(S(=O)(=O)N(CCCO)c3ccnn3-c3ccccc3)cc2)c1`, in that order: above 250 µM and 8 µM.
On to `C=CCc1ccc(S(=O)(=O)N(C)c2ccnn2-c2ccccc2)cc1`, for which the half-maximal inhibitory concentration (IC50) is 20 µM on Cytochrome P450 2C19, above 200 µM at Cytochrome P450 2C9, 20 µM on Cytochrome P450 2C8 and 10 µM at Cytochrome P450 2C18.
In the case of `Nc1cccc(-c2ccc(S(=O)(=O)Nc3ccnn3-c3ccccc3)cc2)c1`, the half-maximal inhibitory concentration (IC50) was found to be 8 µM at Cytochrome P450 2C8 and 20 µM at Cytochrome P450 2C18.
As for `CCCCN(c1ccnn1-c1ccccc1)S(=O)(=O)c1ccc(N)cc1`, the IC50 at Cytochrome P450 2C19 was 60 µM; at Cytochrome P450 2C9 it was 50 µM; at Cytochrome P450 2C8 it was 4 µM; on Cytochrome P450 2C18, 6 µM.
Consider `Nc1ccc(S(=O)(=O)Nc2ccnn2-c2ccccc2)cc1` [SULFAPHENAZOLE], for which the 50% inhibitory concentration (IC50) was 130 µM on Cytochrome P450 2C8 and 60 µM at Cytochrome P450 2C18.
As for `O=[N+]([O-])c1cccc(-c2ccc(S(=O)(=O)N(CCO)c3ccnn3-c3ccccc3)cc2)c1`, the IC50 on Cytochrome P450 2C19 was 165 µM; at Cytochrome P450 2C9, 20 µM; at Cytochrome P450 2C8, above 250 µM; on Cytochrome P450 2C18 it was 9 µM.
Take `CCCN(c1ccnn1-c1ccccc1)S(=O)(=O)c1ccc(N)cc1`: the concentration for half-maximal inhibition (IC50) at Cytochrome P450 2C19 was determined as 250 µM; at Cytochrome P450 2C9, 55 µM; on Cytochrome P450 2C8 it was 8 µM; on Cytochrome P450 2C18, 8 µM.
Take `C=CCc1ccc(S(=O)(=O)Nc2ccnn2-c2ccccc2)cc1`: the IC50 amounted to 450 µM on Cytochrome P450 2C19, 1 µM on Cytochrome P450 2C9, 10 µM at Cytochrome P450 2C8 and 150 µM on Cytochrome P450 2C18.
Turning to `Nc1ccc(S(=O)(=O)N(CCCO)c2ccnn2-c2ccccc2)cc1`, the results for the IC50 at Cytochrome P450 2C8 and on Cytochrome P450 2C18 were 22 µM and 30 µM, respectively.
On to `Cc1ccc(S(=O)(=O)N(C)c2ccnn2-c2ccccc2)cc1`, for which the IC50 at Cytochrome P450 2C19 is 20 µM; on Cytochrome P450 2C9, 10 µM; at Cytochrome P450 2C8, 180 µM; on Cytochrome P450 2C18 it was 12 µM.
For the molecule `CC(C)N(c1ccnn1-c1ccccc1)S(=O)(=O)c1ccc(N)cc1`, the half-maximal inhibitory concentration (IC50) on Cytochrome P450 2C19 is 130 µM; on Cytochrome P450 2C9 it was 80 µM; at Cytochrome P450 2C8, 30 µM; on Cytochrome P450 2C18 it was 3 µM.
Turning to `CCN(c1ccnn1-c1ccccc1)S(=O)(=O)c1ccc(N)cc1`, the IC50 on Cytochrome P450 2C19 was found to be 225 µM; on Cytochrome P450 2C9, 90 µM; on Cytochrome P450 2C8, 13 µM; at Cytochrome P450 2C18, 7 µM.
`O=[N+]([O-])c1cccc(-c2ccc(S(=O)(=O)N(CCCCO)c3ccnn3-c3ccccc3)cc2)c1`: the IC50 on Cytochrome P450 2C8 is above 250 µM; at Cytochrome P450 2C18 it was 4 µM.

As a reminder, the IC50 is the point on the concentration scale where inhibition reaches its midpoint.
